Assay results from patent US10111433B2 (priority 2014, dated 2018).
Where two headings read alike, the source gives them in different places.

What was measured:
Phytophthora capsici = assay: Activity against Phytophthora capsici, growth inhibition in nutrient broth (microtiter plate); format: cell-based
Method: Conidia of the fungus from cryogenic storage are directly mixed into nutrient broth (PDB potato dextrose broth). After placing a (DMSO) solution of test compound into a microtiter plate (96-well format), the nutrient broth containing the fungal spores is added. […] Table B4 to B21 gives the mean percent control relative to untreated.

Phytophthora infestans [1] = format: in vivo
Phytophthora infestans [2] = format: in vivo; conditions: Table B3; Chlorothalonil 1000 gai/ha; leaf area, four days after final application
Plasmopara viticola = assay: Field activity against Plasmopara viticola on grapevine; format: in vivo; conditions: Table B2; Mandipropamid 93.75 gai/ha; bunches, ten days after sixth application
Text: Merlot grapevines were cultivated in rows with 1 m between plants within the row, and 2 m spaces between rows. Treatment plots were defined with an 8 m^2 vertical area. The trial consisted of three replicates of the treatment list, with the positions of each treatment plot randomised within the replicate.
Test compounds were formulated and applied to the relevant treatment plots, using a backpack sprayer with a flat fan nozzle. The first application was made when the majority of plants were at growth stage BBCH 15 and following applications at 10-14 day intervals through to growth stage BBCH 79.
The first symptoms of the target pathogen Plasmopara viticola were observed between the second and third applications. Plants outside the trial area were inoculated to increase the disease pressure, but infection processes within the trial plots were natural. […]
Ten days after the sixth application, at growth stage BBCH 79, the fruit was assessed for infection by Plasmopara viticola. 50 bunches per plot were assessed, the scores given in table B2 are percent disease control relative to untreated, based on the mean percentage of bunches showing symptoms of infection across all three replicates of a treatment.

[3] = Table B20, Iprovalicarb 0.6250 ppm, no A-1.2 rate printed in the row

CCNC(=O)NC(=O)/C(C#N)=N/OC [Cymoxanil]
inhibition of growth at 0.0625 ppm (Phytophthora capsici; Phytophthora capsici, Table B13, Cymoxanil 0.0625 ppm, read-out: % disease control): 0% | inhibition of growth at 0.125 ppm (Phytophthora capsici; Phytophthora capsici, Table B13, Cymoxanil 0.1250 ppm, read-out: % disease control): 10% | inhibition of growth at 0.25 ppm (Phytophthora capsici; Phytophthora capsici, Table B13, Cymoxanil 0.2500 ppm, read-out: % disease control): 0% | inhibition of growth at 0.5 ppm (Phytophthora capsici; Phytophthora capsici, Table B13, Cymoxanil 0.5000 ppm, read-out: % disease control): 11% | inhibition of growth at 1 ppm (Phytophthora capsici; Phytophthora capsici, Table B13, Cymoxanil 1.0000 ppm, read-out: % disease control): 8% | inhibition of growth at 2 ppm (Phytophthora capsici; Phytophthora capsici, Table B13, Cymoxanil 2.0000 ppm, read-out: % disease control): 36%

N#Cc1c(Cl)c(Cl)c(Cl)c(C#N)c1Cl [Chlorothalonil]
inhibition of growth at 0.0781 ppm (Phytophthora capsici; Phytophthora capsici, Table B5, Chlorothalonil 0.0781 ppm, read-out: % disease control): 24% | inhibition of growth at 0.1563 ppm (Phytophthora capsici; Phytophthora capsici, Table B5, Chlorothalonil 0.1563 ppm, read-out: % disease control): 24% | inhibition of growth at 0.3125 ppm (Phytophthora capsici; Phytophthora capsici, Table B5, Chlorothalonil 0.3125 ppm, read-out: % disease control): 23% | inhibition of growth at 0.625 ppm (Phytophthora capsici; Phytophthora capsici, Table B5, Chlorothalonil 0.6250 ppm, read-out: % disease control): 64% | % disease control (Phytophthora infestans [1]; Table B1.3, Chlorothalonil 60 ppm): 6% | % disease control relative to untreated (Phytophthora infestans [2]): 4.3%

O=C(NCc1ncc(C(F)(F)F)cc1Cl)c1c(Cl)cccc1Cl [Fluopicolid]
% disease control (Phytophthora capsici; Table B15, Fluopicolid 0.0625 ppm): 6% | % disease control (Phytophthora capsici; Table B15, Fluopicolid 0.1250 ppm): 59% | % disease control (Phytophthora capsici; Table B15, Fluopicolid 0.2500 ppm): 69% | % disease control (Phytophthora capsici; Table B15, Fluopicolid 0.5000 ppm): 79%

Cc1c(Br)c2ccc(F)cc2n1S(=O)(=O)c1ncn(S(=O)(=O)N(C)C)n1 [Amisulbrom]
% disease control (Phytophthora capsici; Table B16, Amisulbrom 0.0063 ppm): 5% | % disease control (Phytophthora capsici; Table B16, Amisulbrom 0.0125 ppm): 6% | % disease control (Phytophthora capsici; Table B16, Amisulbrom 0.0500 ppm): 24% | % disease control (Phytophthora capsici; Table B16, Amisulbrom 0.1000 ppm): 35%

CCO[PH](=O)[O-].CCO[PH](=O)[O-].CCO[PH](=O)[O-].[Al+3] [Fosethyl-Al]
% disease control (Phytophthora capsici; Table B21, Fosethyl-Al 0.3125 ppm): 8% | % disease control (Phytophthora capsici; Table B21, Fosethyl-Al 0.6250 ppm): 14% | % disease control (Phytophthora capsici; Table B21, Fosethyl-Al 1.2500 ppm): 14%

CCC(C)(NC(=O)c1cc(Cl)c(C)c(Cl)c1)C(=O)CCl (stereo not shown) [Zoxamid]
inhibition of growth at 0.0063 ppm (Phytophthora capsici; Phytophthora capsici, Table B14, Zoxamid 0.0063 ppm, read-out: % disease control): 19% | inhibition of growth at 0.0125 ppm (Phytophthora capsici; Phytophthora capsici, Table B14, Zoxamid 0.0125 ppm, read-out: % disease control): 40% | inhibition of growth at 0.025 ppm (Phytophthora capsici; Phytophthora capsici, Table B14, Zoxamid 0.0250 ppm, read-out: % disease control): 48% | inhibition of growth at 0.05 ppm (Phytophthora capsici; Phytophthora capsici, Table B14, Zoxamid 0.0500 ppm, read-out: % disease control): 65%

CO/C=C(/C(=O)OC)c1ccccc1Oc1cc(Oc2ccccc2C#N)ncn1 [Azoxystrobin]
% disease control (Phytophthora capsici; Table B7, Azoxystrobin 0.0313 ppm): 23% | % disease control (Phytophthora capsici; Table B7, Azoxystrobin 0.0625 ppm): 23% | % disease control (Phytophthora capsici; Table B7, Azoxystrobin 0.1250 ppm): 62%

O=[N+]([O-])c1cc(C(F)(F)F)c(Cl)c([N+](=O)[O-])c1Nc1ncc(C(F)(F)F)cc1Cl [Fluazinam]
inhibition of growth at 0.0625 ppm (Phytophthora capsici; Phytophthora capsici, Table B11, Fluazinam 0.0625 ppm, read-out: % disease control): 4% | inhibition of growth at 0.125 ppm (Phytophthora capsici; Phytophthora capsici, Table B11, Fluazinam 0.1250 ppm, read-out: % disease control): 10% | inhibition of growth at 0.25 ppm (Phytophthora capsici; Phytophthora capsici, Table B11, Fluazinam 0.2500 ppm, read-out: % disease control): 0% | inhibition of growth at 0.5 ppm (Phytophthora capsici; Phytophthora capsici, Table B11, Fluazinam 0.5000 ppm, read-out: % disease control): 14%

N#Cc1sc2c(=O)c3ccccc3c(=O)c=2sc1C#N [Dithianon]
inhibition of growth at 0.125 ppm (Phytophthora capsici; Phytophthora capsici, Table B6, Dithianon 0.1250 ppm, read-out: % disease control): 0% | inhibition of growth at 0.25 ppm (Phytophthora capsici; Phytophthora capsici, Table B6, Dithianon 0.2500 ppm, read-out: % disease control): 7% | inhibition of growth at 0.5 ppm (Phytophthora capsici; Phytophthora capsici, Table B6, Dithianon 0.5000 ppm, read-out: % disease control): 8% | inhibition of growth at 1 ppm (Phytophthora capsici; Phytophthora capsici, Table B6, Dithianon 1.0000 ppm, read-out: % disease control): 25%

C[C@@]1(c2ccc(Oc3ccccc3)cc2)OC(=O)N(Nc2ccccc2)C1=O (racemic) [Famoxadone]
inhibition of growth at 0.1563 ppm (Phytophthora capsici; Phytophthora capsici, Table B19, Famoxadone 0.1563 ppm, read-out: % disease control): 16% | inhibition of growth at 0.3125 ppm (Phytophthora capsici; Phytophthora capsici, Table B19, Famoxadone 0.3125 ppm, read-out: % disease control): 16% | inhibition of growth at 0.625 ppm (Phytophthora capsici; Phytophthora capsici, Table B19, Famoxadone 0.6250 ppm, read-out: % disease control): 16% | inhibition of growth at 1.25 ppm (Phytophthora capsici; Phytophthora capsici, Table B19, Famoxadone 1.2500 ppm, read-out: % disease control): 16% | inhibition of growth at 2.5 ppm (Phytophthora capsici; Phytophthora capsici, Table B19, Famoxadone 2.5000 ppm, read-out: % disease control): 16% | inhibition of growth at 5 ppm (Phytophthora capsici; Phytophthora capsici, Table B19, Famoxadone 5.0000 ppm, read-out: % disease control): 25%

Cc1ccc(C(C)NC(=O)[C@@H](NC(=O)OC(C)C)C(C)C)cc1 (stereo partly shown) [Iprovalicarb]
% disease control (Phytophthora capsici; [3]): 91% | Expected action (Colby) (Phytophthora capsici; [3]): 66% | % disease control (Phytophthora capsici; Table B20, Iprovalicarb 1.2500 ppm): 18% | % disease control (Phytophthora capsici; Table B20, Iprovalicarb 2.5000 ppm): 0%

CCCCCCCCc1c(CC)nc2ncnn2c1N [Ametoctradin]
% disease control (Phytophthora capsici; Table B17, Ametoctradin 0.0063 ppm): 8% | % disease control (Phytophthora capsici; Table B17, Ametoctradin 0.0125 ppm): 8% | % disease control (Phytophthora capsici; Table B17, Ametoctradin 0.0250 ppm): 13% | % disease control (Phytophthora capsici; Table B17, Ametoctradin 0.0500 ppm): 30%

COc1ccc(C(=CC(=O)N2CCOCC2)c2ccc(Cl)cc2)cc1OC [Dimetomorph]
inhibition of growth at 0.0031 ppm (Phytophthora capsici; Phytophthora capsici, Table B10, Dimetomorph 0.0031 ppm, read-out: % disease control): 0% | inhibition of growth at 0.0063 ppm (Phytophthora capsici; Phytophthora capsici, Table B10, Dimetomorph 0.0063 ppm, read-out: % disease control): 14% | inhibition of growth at 0.0125 ppm (Phytophthora capsici; Phytophthora capsici, Table B10, Dimetomorph 0.0125 ppm, read-out: % disease control): 0% | inhibition of growth at 0.1 ppm (Phytophthora capsici; Phytophthora capsici, Table B10, Dimetomorph 0.1000 ppm, read-out: % disease control): 28%

O=C1c2ccccc2C(=O)N1SC(Cl)(Cl)Cl [Folpet]
inhibition of growth at 0.0313 ppm (Phytophthora capsici; Phytophthora capsici, Table B12, Folpet 0.0313 ppm, read-out: % disease control): 17% | inhibition of growth at 0.0625 ppm (Phytophthora capsici; Phytophthora capsici, Table B12, Folpet 0.0625 ppm, read-out: % disease control): 11% | inhibition of growth at 0.125 ppm (Phytophthora capsici; Phytophthora capsici, Table B12, Folpet 0.1250 ppm, read-out: % disease control): 19% | inhibition of growth at 0.25 ppm (Phytophthora capsici; Phytophthora capsici, Table B12, Folpet 0.2500 ppm, read-out: % disease control): 19% | % disease control (Phytophthora infestans [1]; Table B1.2, Folpet 20 ppm): 0% | % disease control (Phytophthora infestans [1]; Table B1.2, Folpet 60 ppm): 33%

CSC1=N[C@@](C)(c2ccccc2)C(=O)N1Nc1ccccc1 [Fenamidone]
inhibition of growth at 0.0031 ppm (Phytophthora capsici; Phytophthora capsici, Table B18, Fenamidone 0.0031 ppm, read-out: % disease control): 12% | inhibition of growth at 0.0063 ppm (Phytophthora capsici; Phytophthora capsici, Table B18, Fenamidone 0.0063 ppm, read-out: % disease control): 4% | inhibition of growth at 0.0125 ppm (Phytophthora capsici; Phytophthora capsici, Table B18, Fenamidone 0.0125 ppm, read-out: % disease control): 41% | inhibition of growth at 0.025 ppm (Phytophthora capsici; Phytophthora capsici, Table B18, Fenamidone 0.0250 ppm, read-out: % disease control): 54%

COCC(=O)N(c1c(C)cccc1C)[C@H](C)C(=O)OC [Mefenoxam]
% disease control (Phytophthora capsici; Table B8, Mefenoxam 0.0031 ppm): 0% | % disease control (Phytophthora capsici; Table B8, Mefenoxam 0.0063 ppm): 13% | % disease control (Phytophthora capsici; Table B8, Mefenoxam 0.0125 ppm): 13% | % disease control (Phytophthora capsici; Table B8, Mefenoxam 0.0250 ppm): 28% | % disease control (Phytophthora capsici; Table B8, Mefenoxam 0.0500 ppm): 42%

Mancozeb
% disease control (Phytophthora capsici; Table B4, Mancozeb 0.3125 ppm): 3% | % disease control (Phytophthora capsici; Table B4, Mancozeb 0.6250 ppm): 1% | % disease control (Phytophthora capsici; Table B4, Mancozeb 1.2500 ppm): 0% | % disease control (Phytophthora capsici; Table B4, Mancozeb 2.5000 ppm): 0% | % disease control (Phytophthora capsici; Table B4, Mancozeb 5.0000 ppm): 1% | % disease control (Phytophthora capsici; Table B4, Mancozeb 10.0000 ppm): 1% | % disease control (Phytophthora capsici; Table B4, Mancozeb 20.0000 ppm): 0%

C#CCOc1ccc(CCNC(=O)C(OCC#C)c2ccc(Cl)cc2)cc1OC (stereo not shown) [Mandipropamid]
% disease control (Phytophthora capsici; Table B9, Mandipropamid 0.0003 ppm): 16% | % disease control (Phytophthora capsici; Table B9, Mandipropamid 0.0006 ppm): 0% | % disease control (Phytophthora capsici; Table B9, Mandipropamid 0.0012 ppm): 0% | % disease control (Phytophthora capsici; Table B9, Mandipropamid 0.0025 ppm): 17% | % disease control (Phytophthora capsici; Table B9, Mandipropamid 0.0050 ppm): 13% | % disease control (Phytophthora capsici; Table B9, Mandipropamid 0.0100 ppm): 15% | % disease control (Phytophthora infestans [1]; Table B1.1, Mandipropamid 0.06 ppm): 0% | % disease control (Phytophthora infestans [1]; Table B1.1, Mandipropamid 0.2 ppm): 0% | % disease control (Phytophthora infestans [1]; Table B1.1, Mandipropamid 0.6 ppm): 3% | % disease control relative to untreated (Plasmopara viticola): 17.3%
